Test results from patent publication US6692443B2, “Systems and methods for investigating blood flow” (New Health Sciences, Inc., priority 2000, dated 2004).

System: cerebral vessels
Description: A person with a history of hypertension experiences a first stroke in the left middle cerebral artery resulting in deficits in the right hand, leg, and some deficits in motor speech. These are the symptoms upon presentation in the neurological clinic. Transcranial Doppler analysis of all cerebral vessels is performed in addition to analyzing the common carotid artery and the internal carotid artery.
The physician considers prescription of Plavix together with a calcium channel blocker. Transcranial Doppler analysis was performed at monthly intervals. […] The physician subsequently administers a higher dose. Again, transcranial Doppler analysis is performed on all cerebral vessels.

SMILES: COC(=O)[C@H](c1ccccc1Cl)N1CCc2sccc2C1 [Plavix]
- changes in the individual cerebral vessels (transcranial Doppler) (person after first stroke, Plavix +/− calcium channel blocker, initial dose, analysis at monthly intervals): no effect on the cerebral vessels
- auto-regulation curve (transcranial Doppler) (same patient, higher dose): left-shifts toward normal
- pulsatility index of the vessel studied (transcranial Doppler) (same patient, higher dose): decreases
